Measurements reported in ChEMBL document CHEMBL1146336, “The dicationic derivatives of DBTAA: Interactions with DNA/RNA and antiproliferative effects on human cell lines” (Bioorg Med Chem, 2007).

Experiments:
HEp-2 = assay: Antiproliferative activity against human Hep2 cells after 72 hrs by MTT assay; assay type: functional, cell-based; conditions: HEp-2, 72 h
HeLa = assay: Antiproliferative activity against human HeLa cells after 72 hrs by MTT assay; assay type: functional, cell-based
MIA PaCa-2 [1] = assay: Antiproliferative activity against human MiaPaCa2 cells after 72 hrs by MTT assay a; assay type: functional, cell-based; conditions: MIA PaCa-2, 72 h
SW-620 = assay: Antiproliferative activity against human SW620 cells after 72 hrs by MTT assay; assay type: functional, cell-based; conditions: SW-620, 72 h
MCF7 = assay: Antiproliferative activity against human MCF7 cells after 72 hrs by MTT assay; assay type: functional, cell-based; conditions: MCF7, 72 h
[2] = Antiproliferative activity against human WI38 cells after 72 hrs by MTT assay; assay type: cell-based; conditions: WI-38, 72 h
[3] = Binding affinity to poly G-poly C 0.05 mol/dm^3 by UV/vis titration
MIA PaCa-2 [4] = assay: Effect on cell cycle in human MiaPaCa2 cells assessed as accumulation at sub-G1 phase at 5 uM after 24 hrs by […]; assay type: functional
[5] = Binding affinity to poly dA-poly dT 0.05 mol/dm^3 by UV/vis titration
[6] = Binding affinity to poly A-poly U 0.05 mol/dm^3 by UV/vis titration
MIA PaCa-2 [7] = assay: Effect on cell cycle in human MiaPaCa2 cells assessed as accumulation at G1/G0 phase at 5 uM after 24 hrs by […]; assay type: functional
MIA PaCa-2 [8] = assay: Effect on cell cycle in human MiaPaCa2 cells assessed as accumulation at S phase at 5 uM after 24 hrs by […]; assay type: functional
MIA PaCa-2 [9] = assay: Effect on cell cycle in human MiaPaCa2 cells assessed as accumulation at G2/M phase at 5 uM after 24 hrs by […]; assay type: functional
MIA PaCa-2 [10] = assay: Effect on cell cycle in human MiaPaCa2 cells assessed as accumulation at sub-G1 phase at 5 uM after 48 hrs by Annexin-V assay; assay type: functional
MIA PaCa-2 [11] = assay: Effect on cell cycle in human MiaPaCa2 cells assessed as accumulation at G1/G0 phase at 5 uM after 48 hrs by […]; assay type: functional
MIA PaCa-2 [12] = assay: Effect on cell cycle in human MiaPaCa2 cells assessed as accumulation at S phase at 5 uM after 48 hrs by […]; assay type: functional
MIA PaCa-2 [13] = assay: Effect on cell cycle in human MiaPaCa2 cells assessed as accumulation at G2/M phase at 5 uM after 48 hrs by […]; assay type: functional
MIA PaCa-2 [14] = assay: Effect on cell cycle in human MiaPaCa2 cells assessed as accumulation at sub-G1 phase at 5 uM after 72 hrs by Annexin-V assay; assay type: functional
MIA PaCa-2 [15] = assay: Effect on cell cycle in human MiaPaCa2 cells assessed as accumulation at G1/G0 phase at 5 uM after 72 hrs by […]; assay type: functional
MIA PaCa-2 [16] = assay: Effect on cell cycle in human MiaPaCa2 cells assessed as accumulation at S phase at 5 uM after 72 hrs by […]; assay type: functional
MIA PaCa-2 [17] = assay: Effect on cell cycle in human MiaPaCa2 cells assessed as accumulation at G2/M phase at 5 uM after 72 hrs by […]; assay type: functional
[18] = Binding affinity to poly dA-poly dT 0.15 mol/dm^3 by UV/vis titration
[19] = Binding affinity to poly A-poly U 0.15 mol/dm^3 by UV/vis titration

IC50 (HeLa) [µM] | IC50 (MIA PaCa-2 [1]) [µM] | IC50 (SW-620) [µM] | IC50 (MCF7) [µM] | log Ks [3] | log Ks [5] | log Ks [6] | SMILES | IC50 (HEp-2) [µM] | IC50 [2] [µM] | Activity (MIA PaCa-2 [4]) [%] | Activity (MIA PaCa-2 [7]) [%] | Activity (MIA PaCa-2 [8]) [%] | Activity (MIA PaCa-2 [9]) [%] | Activity (MIA PaCa-2 [10]) [%] | Activity (MIA PaCa-2 [11]) [%] | Activity (MIA PaCa-2 [12]) [%] | Activity (MIA PaCa-2 [13]) [%] | Activity (MIA PaCa-2 [14]) [%] | Activity (MIA PaCa-2 [15]) [%] | Activity (MIA PaCa-2 [16]) [%] | further results
> 100 | > 100 | > 50 | ≥ 100 |  |  |  | C1=C(CCC[n+]2ccc(-c3ccncc3)cc2)\C=N\c2ccccc2N/C=C(CCC[n+]2ccc(-c3ccncc3)cc2)\C=N\c2ccccc2N/1 | > 100 | > 100 |  |  |  |  |  |  |  |  |  |  |  | 
13.5 | 2.6 | 4 | 2.6 | 6.1 | 5.3 | 5.9 | C[n+]1ccc(CCC(=O)OCCCC2=C/Nc3ccccc3/N=C/C(CCCOC(=O)CCc3cc[n+](C)cc3)=C\Nc3ccccc3\N=C\2)cc1.[Br-].[Br-] | 38 | 4 | 5.3 | 62.32 | 16.29 | 21.76 | 10 | 79.3 | 9.7 | 10.98 | 20 | 84.02 | 5.39 | Activity (MIA PaCa-2 [17]): 10.5%
2 | 1.2 | 18.5 | 6 | 4.2 | 6.1 | 5.19 | C1=C(CCC[n+]2ccccc2)\C=N\c2ccccc2N/C=C(CCC[n+]2ccccc2)\C=N\c2ccccc2N/1.[Br-].[Br-] | 11 | 10 | 9.2 | 47.56 | 28.4 | 24.054 | 11 | 65.59 | 17.538 | 16.38 | 40 | 58.34 | 31.03 | Activity (MIA PaCa-2 [17]): 10.7%; log Ks [18]: 4.77; log Ks [19]: 5.4
